Measurements from US20190309044A1, “POLYPEPTIDES AND USES THEREOF AS A DRUG FOR TREATMENT OF AUTOIMMUNE DISORDERS” (Compugen Ltd., priority 2017, published 2019).
Values joined by “and” are separate entries in the source; they are usually repeats but may differ in a detail not shown here. Identical values can stand only once. “Also recorded” adds a separate entry of the source.

Assays:
[1] = tested on: healthy human skin transplanted onto beige-SCID mice; assay: Humanized psoriasis model, human skin xenografts on beige-SCID mice; type: in vivo, mouse; details: for Healthy Skin, number of grafts / Partial Psoriasiform With Tendency Towards Healthy skin, number of grafts / Psoriasiform Skin, number of affected grafts: histological evaluation, day 28; for proliferation index (% Ki-67 positive cells): vs vehicle; for epidermal thickness: vs vehicle treated group
From the text: In this model, psoriasis is induced in xenotransplants of healthy human skin transplanted onto beige severe combined immunodeficiency (SCID) mice followed by intradermal (i.d.) injection of IL-2 enriched Peripheral Blood Mononuclear Cells (PBMCs) isolated from blood of psoriasis patients (Nickoloff, 1995; Wrone-Smith, 1996 Gilhar et al., 2002, 2006, 2011). The activity of these compounds was compared to that of Enbrel, a TNF inhibitor which is an approved biological drug for treatment of psoriasis. As a control for model robustness, we used dexamethasone, a steroid with suppressive effects on inflammatory cytokines and chemokines such as TNF-alpha and interferon-gamma which cause severe psoriasis. All treatments were administered intradermally, except for dexamethasone which was given topically.
2.2. Study Protocol A) Healthy human skin pieces with a width of 0.4 mm and surface area of 1.5×1.5 cm were provided from residual skin of routine plastic surgery procedures from the Plastic Surgery Department of the Rambam Medical Center, Israel. In addition, 20 mL blood samples were taken from psoriatic patients. B) Seventy (70) beige-severe combined immunodeficient mice (SCID) (weight ˜20-25 g) were included in this study. Normal healthy human donor skin was transplanted onto the beige-SCID mice as previously described (Nickoloff et al., 1995; Wrone-Smith, 1996; Gilhar et al., 2002, 2006, 2011; Kalish et al., 2009) and the mice were divided into 7 groups. C) Peripheral Blood Mononuclear Cells (PBMCs) isolated from psoriatic patients' blood were cultured in the presence of IL-2 [Prospec, 100 U/mL of RPMI 1640 media, 10% human AB serum (Sigma, St. Louis, Mo.), 1% glutamine, 1% antibiotics (media components; Biological Industries, Kibbutz Beit Haemeck, Israel)] for 14 days, as previously described (Gilhar et al, 2002). D) Four weeks following engraftment, each mouse was injected intra-dermally (i.d.) into the grafted skin lesion, with 1×10^7 activated allogeneic enriched PBMCs from psoriatic patients (FIG. 20). Cells from different psoriasis patients were equally distributed between treatment groups so that each patient is represented in each treatment group. E) On the day of PBMCs injection into the skin grafts, mice were divided randomly into treatment groups (n=9-10 mice per group) and administration of all drugs started (FIG. 20). All tested compounds including the vehicle were given intradermally (intralesional), three times a week, except for dexamethasone which was given topically for 14 consecutive days (Table 3).
F) Twenty eight days after starting the injections and treatment, skin was harvested (FIG. 20). Grafts were analyzed for the following psoriatic parameters by histology: epidermal thickening (acanthosis), suprapapillary epidermal thinning (papillomatosis), hyperkeratosis, parakeratosis, orthokeratosis, agranulosis-hypogranulosis, appearance of neutrophils in the upper spinous layer or in the corneal cell layer—Munro microabscess, regular elongation of rete ridges, angiogenesis, edema and dilated tortuous blood vessels in the dermal papilla and mononuclear cell infiltrate in the papillary dermis. Epidermal thickness was measured as detailed below, and HLA-DR, ICAM-1, Ki-67 and immune infiltrates (anti-CD3 stain) were evaluated by immunohistochemistry (IHC).
The entire skin graft was excised and placed in 10% formal saline overnight. Then, the specimens were place in 70% ethanol and were embedded according to the standard H&E protocol. Histological assessment of the skin grafts was performed by light microscopy and evaluated by two blinded observers [the second observer evaluated random slides (about 25% of all slides) to compare the data obtained by the first observer. […] Epidermal thickness was determined with an ocular micrometer at a minimum of 50 points along the epidermis selected to represent points of maximal and minimal thickness.
Representative grafts were allocated for IHC analysis. […]

[2] = tested on: synovial-like T-cell - macrophage co-cultures; assay: Synovial-like T-cell - macrophage co-cultures from RA patients not responding to TNF blockers, TNFa secretion; type: cell-based, human
From the text: The therapeutic potential of C1ORF32-ECD-FC (SEQ ID #43) for treating RA was studied in co-cultures of activated T cells and macrophages that were modified to mimic the deleterious interaction of these cells in RA synovium. This interaction drives the secretion of pro-inflammatory cytokines that play a major role in the pathology of RA, leading to progressive joint inflammation and to joint destruction. Thus, these co-cultures provide a translational tool to evaluate the effect of potential drugs for treatment of RA (Wenink et al., Ann Rheum Dis 2012; 71:1 80-83).
Purified T cells and myeloid cells from blood of RA patients that fail to respond to treatment with TNF blockers were activated for 6 days with TNFa, IL-6 and IL-15 and co-cultures with Monocytes derived macrophages that were generated by activation of CD14+ monocytes with M-CSF for 6 days.
The amounts were administered as follows: FIG. 33: 30microg/ml of each protein; FIG. 34: 3, 10, 30microg/ml of each protein as shown.

MS patients' PBMCs = assay: Proliferation and cytokine secretion of PBMCs from MS patients; type: cell-based, human
Protocol: PBMCs were taken from eight MS patients with diagnosed relapsing-remitting disease who have experienced a relapse 1-2 days prior to blood drawing.
PBMCs were plated in a flat-bottom 96-well plate at 1e6 cells/well. The cells were cultured in the presence of anti-CD3 (0.5 ug/ml), MS-specific peptide MBP85-96 (10 ug/ml), or tetanus toxoid peptide TT830-843 (10 ug/ml). C1ORF32 ECD-Fc (SEQ ID NO: 43) or Control Ig were added to the cuture at the indicated concentrations. Two replicate plates were set to study for the effect of C1ORF32 ECD-Fc (SEQ ID NO: 43) on proliferation and on pro-inflammatory and anti-inflammatory cytokines secretion. To test for proliferation, the cultures were pulsed on day +1 of culture with 1uCi of tritiated thymidine and then harvested 3 days later on day +4 of culture. For cytokine analysis, super natantes from a replicate cultures were collected on day +4 of culture and tested using Millipore multiplex assay.

[3] = tested on: TcK and macrophages co-cultures; assay: TcK:macrophage co-culture cytokine secretion, healthy volunteers; type: cell-based, human; details: buffy coats of healthy volunteers
Protocol: • Purified CD4+ cells (2×10^6 cells/ml) are activated for 6 days in complete medium containing IL-15 (100 ng/ml), IL-6 (100 ng/ml) and TNFa (25 ng/ml).
TcKs are added to macrophage culture following removal of existing culture media at a ratio of 4:1 (5×10^4 cells/well/CD4^+ T cells plus 2×10^5 cells/well CD14^+ Macrophages). C1ORF32 ECD-Fc (SEQ ID NO:43) or Control IgG are added at 1, 3, 10, 30 μg/ml. For additional controls co-cultures are added with vehicle or with medium only (Wennink et al., 2012).
After 24 hrs of culture, cytokines (IL-10, IFN-α, IL-6, IL-12, RANTES, IL-13, IL-15, IL-17, MIP-1α, GM-CSF, IFNγ, TNFα, IL-1RA, IL-7, IL-1B, eotaxin, IL-2 IL-4 and IL-2R) are analyzed using ELISA and/or Luminex.
Co-culture of TcK with autologeuos ex-vivo differentiated macrophages mimics one of the crucial pathways mediating synovial macrophage activation in RA thus serving as a translational tool for evaluating the therapeutic potential of drug candidates. Therefore the effect of C1ORF32 ECD-Fc (SEQ ID NO:43) was tested on the secretion of a range of pro-inflammatory and anti-inflammatory cytokines in such co-cultures. Two studies were carried out, one in which buffy coats from healthy volunteers was used and another study in which the responses of RA patients blood cells responses were compared to that of healthy voluntiers in which blood was used rather than buffy coats.

male DBA-1 mice = assay: Established collagen induced arthritis (CIA), macroscopic and histological scores; type: in vivo, mouse; details: Enbrel 5 mg/kg
Protocol: Bovine type II collagen (CII) (RUNMC in house production, batch 03-04-08) at a concentration of 2 mg/ml in acetic acid 0.05M was emulsified in equal volumes of Freund's complete adjuvant (2 mg/ml of Mycobacterium tuberculosis strain H37Ra; Difco, Detroit, Mich.).
On day 0, 10-12 week old male DBA-1 mice (Janvier Elevage, France) (n=95) were immunized i.d. at the base of the tail with 100 μg of bovine CII. On day 21, mice received an intraperitoneal booster injection of 50 μg of CII dissolved in phosphate buffered saline (PBS), and the onset of arthritis occurred a few days after this booster.
Joint inflammation in each paw was scored visually, using a scale of 0-2 per paw with a maximal score of 8 per animal: 0=non inflamed, 1=mild inflammation, 1.5=marked inflammation, and 2=severe inflammation. Scoring was performed three times a week.
Treatment was started in established CIA early after onset of disease (i.e. therapeutic regimen), when the macroscopic scores per animal were between 0.25 and 1.25 (on a scale of 0-8). […] Histology was scored for inflammation and destruction on an arbitrary scale of 0-3, for five different parameters: […]
Joints were fixed for at least 4 days in 4% formaldehyde, decalcified in 5% formic acid, and subsequently dehydrated and embedded in paraffin. […] The severity of inflammation in the joints was scored on a scale of 0-3 (0=no cells, 1=mild cellularity, 2=moderate cellularity, and 3=maximal cellularity). […] Depletion of PG was determined using an arbitrary scale of 0-3, ranging from normal, fully stained cartilage to destained cartilage, fully depleted of PGs. Chondrocyte death was scored on a scale of 0-3 ranging from no loss of chondrocyte nuclei to complete empty cartilage surface. The degree of cartilage surface erosion was scored on a scale of 0-3, ranging from no damage to complete loss of articular cartilage. […] Histopathological changes in the joint were scored on three semiserial sections of the joint spaced 70 μm apart. […]

psoriasis patients = details: at week 12; cited from earlier work

Compound: C[C@@H]1C[C@H]2[C@@H]3CCC4=CC(=O)C=C[C@]4(C)[C@@]3(F)[C@@H](O)C[C@]2(C)[C@@]1(O)C(=O)CO [dexamethasone]
- Healthy Skin, number of grafts [1]: 7/10
- Partial Psoriasiform With Tendency Towards Healthy skin, number of grafts [1]: 1
- Psoriasiform Skin, number of affected grafts [1]: 2 and 2/10
- Partial Psoriasiform With Tendency Towards Healthy skin, number of grafts ([1]; listed as Dexa): 1/10
- Psoriasiform Skin, number of affected grafts ([1]; listed as Dexa): 2/10
- grafts with moderate lymphocytic infiltration ([1]; mouse, in vivo): 1/10

Compound: C1ORF32 ECD-Fc (SEQ ID NO: 43): human-human fusion protein: human C1ORF32 ECD fused to human immunoglobulin Fc (SEQ ID NO:43)
- TNFa secretion ([2]; Example 20, 30 microg/ml): decreased the secretion of TNFα
- TNFa secretion in one of the donors ([2]; Example 20, 30 microg/ml): inhibited TNFα secretion
- TNFa secretion ([2]; Example 21, 3, 10, 30 microg/ml): decreased the secretion of TNFa; also recorded: inhibition of TNFa secretion in a dose dependent manner
- proliferation, secretion of IFNg, IL-17 and TNFa (MS patients' PBMCs; absence of activation): no effect
- IL-10, IL-4, TGFb and IL-6 (MS patients' PBMCs; absence of activation, in some of the donors): elevation
- IL-4, IL-10, TGFb and IL-6 secretion (MS patients' PBMCs; activated ex-vivo with MBP85-96): increase
- expression of HLA-DR, ICAM-1 and Ki-67 ([1]; IHC): decreased expression
- proliferation index (% Ki-67 positive cells) ([1]; IHC): trend towards decrease
- proliferation index (% Ki-67 positive cells) ([1]; IHC, listed as C1ORF ECD-Fc (SEQ ID NO:43)): most pronounced reduction
- Healthy Skin, number of grafts [1]: 5/9
- Psoriasiform Skin, number of affected grafts [1]: 4/9
- cases in which disease symptoms were eliminated ([1]; summary in detailed description): about a third of the cases
- epidermal thickness ([1]; listed as C1ORF ECD-Fc (SEQ ID NO:43)): significant reduction
- secretion of TNFa, RANTES, MIP-1a, GM-CSF and IL-5 [3]: inhibited

Compound: Enbrel
- proliferation index (% Ki-67 positive cells) ([1]; IHC): trend of decrease
- Healthy Skin, number of grafts [1]: 3/9
- Psoriasiform Skin, number of affected grafts [1]: 6/9
- epidermal thickness [1]: no substantial effect; also recorded: no significant reduction
- bone erosions, histology (male DBA-1 mice): significant reduction
- psoriasis patients achieving PASI 75 (psoriasis patients): Forty nine
